Test results from article PMC6986909 (Nature, 2020).

Legend:
Assay type in all cases: biochemical
AcrIII-1 YddF = molecular target: T1, AcrIII-1 YddF (Bacillus subtilis, UniProt P96643); assay: single-turnover cleavage of […]-labelled cA4, denaturing PAGE / TLC; conditions: 8 uM dimer, MES pH 6.0, 100 mM NaCl, 1 mM EDTA, 37 °C; labelled compound
T1 sequence (P96643 1-108): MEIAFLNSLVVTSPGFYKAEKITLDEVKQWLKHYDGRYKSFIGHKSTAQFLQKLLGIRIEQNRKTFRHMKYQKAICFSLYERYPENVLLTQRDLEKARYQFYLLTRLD

Crn1 Sso2081 = molecular target: T2, Crn1 Sso2081 (Saccharolobus solfataricus, UniProt Q7LYJ6); assay: as above; conditions: 4 uM dimer, Tris-HCl pH 8.0, 100 mM NaCl, 1 mM EDTA, 50 °C; labelled compound
T2 sequence (Q7LYJ6 1-178): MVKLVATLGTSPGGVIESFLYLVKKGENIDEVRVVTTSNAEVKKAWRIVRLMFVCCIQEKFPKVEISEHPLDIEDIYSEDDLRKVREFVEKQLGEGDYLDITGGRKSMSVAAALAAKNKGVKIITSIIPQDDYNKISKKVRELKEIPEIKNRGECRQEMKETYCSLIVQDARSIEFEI

AcrIII-1 SIRV1 gp29 = molecular target: T3, AcrIII-1 SIRV1 gp29 (Sulfolobus islandicus rod-shaped virus 1, UniProt Q8QL27); assay: degradation of unlabelled cA6, TLC under […] nm UV; conditions: 40 uM dimer, 450 uM cA6, MES pH 5.5, 70 °C; weak substrate, very slow
T3 sequence (Q8QL27 1-114): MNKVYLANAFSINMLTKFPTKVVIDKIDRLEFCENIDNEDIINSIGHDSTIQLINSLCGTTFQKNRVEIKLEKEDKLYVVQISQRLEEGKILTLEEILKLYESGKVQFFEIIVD

Row | SMILES | single-turnover cleavage of 32P-labelled cA4, denaturing PAGE / TLC (AcrIII-1 YddF) | single-turnover cleavage of 32P-labelled cA4, denaturing PAGE / TLC (Crn1 Sso2081) | degradation of unlabelled cA6, TLC under 254 nm UV (AcrIII-1 SIRV1 gp29)
1 | Nc1ncnc2c1ncn2[C@@H]1O[C@@H]2COP(=O)(O)O[C@H]3[C@@H](O)[C@H](n4cnc5c(N)ncnc54)O[C@@H]3COP(=O)(O)O[C@H]3[C@@H](O)[C@H](n4cnc5c(N)ncnc54)O[C@@H]3COP(=O)(O)O[C@H]3[C@@H](O)[C@H](n4cnc5c(N)ncnc54)O[C@@H]3COP(=O)(O)O[C@H]2[C@H]1O [cA4] | Both proteins possess a potent ring nuclease activity, rapidly degrading cA4 | Kinetic comparison of cA4 degradation by the AcrIII-1 enzymes SIRV1 gp29 and YddF | 
2 | Nc1ncnc2c1ncn2[C@@H]1O[C@@H]2COP(=O)(O)O[C@H]3[C@@H](O)[C@H](n4cnc5c(N)ncnc54)O[C@@H]3COP(=O)(O)O[C@H]3[C@@H](O)[C@H](n4cnc5c(N)ncnc54)O[C@@H]3COP(=O)(O)O[C@H]3[C@@H](O)[C@H](n4cnc5c(N)ncnc54)O[C@@H]3COP(=O)(O)O[C@H]3[C@@H](O)[C@H](n4cnc5c(N)ncnc54)O[C@@H]3COP(=O)(O)O[C@H]3[C@@H](O)[C@H](n4cnc5c(N)ncnc54)O[C@@H]3COP(=O)(O)O[C@H]2[C@H]1O [cA6] |  |  | strong preference for cA4 over cA6, with the latter degraded very slowly by comparison
